Drawing on PubChem BioAssay (NCI), this text covers GI50 and TGI for seven compounds.

Molecules are shown by their SMILES. Values joined by “and” are separate entries in the source; they are usually repeats but may differ in a detail not shown here. Equal entries are not always repeated.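 Results reflect a 48-hour exposure of cells in 96-well plates to compound at five concentrations. The concentration for 50% growth inhibition is given as GI50. TGI: concentration producing complete growth inhibition.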

Some test systems named below: HCT-116 colon; COLO 205 colon; HL-60(TB) leukemia; IGROV1 ovarian; 786-0 renal; K-562 leukemia; SNB-19 CNS; UO-31 renal; CCRF-CEM leukemia; ACHN renal.
Holding throughout (assay): inhibition of tumour cell growth, NCI panel, 48 h

Regarding `C=C1C(=O)O[C@H]2[C@H]1CC/C(COC(=O)c1ccc(Br)cc1)=C\CC[C@@]1(C)O[C@@H]21`, the GI50 was 0.415 µM in the assay with HCT-116 colon; 1.79 µM in the assay on COLO 205 colon; 0.664 µM in the assay on HL-60(TB) leukemia; 1.27 µM with IGROV1 ovarian; 1.62 µM in the assay on 786-0 renal; 1.2 µM in the assay with K-562 leukemia. Moreover, the GI50 was 1.85 µM with SNB-19 CNS, 1.29 µM with UO-31 renal, 0.393 µM with CCRF-CEM leukemia and 1.45 µM in the assay with ACHN renal. The TGI in the assay on HCT-116 colon was 1.58 µM; with COLO 205 colon, 3.51 µM; with HL-60(TB) leukemia it was 3.37 µM; in the assay on IGROV1 ovarian, 2.83 µM; with 786-0 renal, 3.09 µM; with K-562 leukemia, 10.3 µM. The TGI was found to be 4.08 µM in the assay with SNB-19 CNS, 2.56 µM with UO-31 renal, 7.76 µM in the assay with CCRF-CEM leukemia and 2.76 µM in the assay on ACHN renal.
With `CCCCCCCC(=O)O[C@H]1[C@H]2[C@@H](CC1(C)C)C(=O)[C@]13O[C@H]1C(=O)[C@]1(CO1)[C@]23C`, the GI50 in the assay with HCT-116 colon was 3.07 µM and 1.63 µM; in the assay with COLO 205 colon, 2.17 µM; with HL-60(TB) leukemia, 0.381 µM; with IGROV1 ovarian, 20.9 µM; in the assay on K-562 leukemia, 1.52 µM; in the assay with UO-31 renal it was 5.73 µM. Also, the GI50 with CCRF-CEM leukemia was 0.593 µM. Also, the TGI is 12.4 µM and 3.8 µM in the assay with HCT-116 colon; 5.18 µM and 4.07 µM in the assay with COLO 205 colon; 4.57 µM and 2.04 µM with HL-60(TB) leukemia; 36.6 µM and 11.4 µM with IGROV1 ovarian; 14.1 µM in the assay on 786-0 renal; 5.13 µM and 5.3 µM in the assay on K-562 leukemia. For the same compound, the TGI is 44.9 µM and 45.9 µM in the assay with SNB-19 CNS; 12.9 µM and 28.2 µM in the assay with UO-31 renal; 3.57 µM and 1.58 µM in the assay with CCRF-CEM leukemia; 4.09 µM in the assay on ACHN renal.
As to `O=C(N/N=C\c1cc(Br)cc(Br)c1O)N/N=C/c1cc(Br)cc(Br)c1O`, the GI50 is 5.96 µM in the assay on HCT-116 colon; 3.92 µM in the assay on COLO 205 colon; 1.28 µM with HL-60(TB) leukemia; 10.1 µM with 786-0 renal; 0.7 µM in the assay with K-562 leukemia; 3.65 µM in the assay with SNB-19 CNS. In addition, the results for the GI50 in the assay with UO-31 renal, in the assay with CCRF-CEM leukemia and in the assay with ACHN renal were 1.8 µM, 0.534 µM and 4.06 µM, respectively. Further, the TGI in the assay on HCT-116 colon is 22.3 µM; in the assay on COLO 205 colon, 14.6 µM; with HL-60(TB) leukemia it was 4.76 µM; with 786-0 renal, 23.1 µM; with K-562 leukemia, 14.3 µM; with SNB-19 CNS, 17.7 µM. Also, the TGI in the assay on UO-31 renal turned out to be 8.7 µM; in the assay on CCRF-CEM leukemia, 4.48 µM; in the assay on ACHN renal it was 13.5 µM.
Take `S=C1NC2=C(CCOc3c2ccc2ccccc32)C(c2ccc(Cl)cc2)N1` (stereo unspecified): the GI50 in the assay with COLO 205 colon is 24.5 µM; in the assay on HL-60(TB) leukemia, 32.7 µM; with IGROV1 ovarian it was 52.8 µM; in the assay with 786-0 renal it was 50.5 µM; with K-562 leukemia it was 42.9 µM; with SNB-19 CNS, 56.4 µM. The GI50 in the assay on UO-31 renal was 46.2 µM; in the assay on CCRF-CEM leukemia, 30.6 µM; in the assay on ACHN renal, 36.4 µM. Also, the TGI in the assay with COLO 205 colon, with HL-60(TB) leukemia, with IGROV1 ovarian, in the assay with 786-0 renal, with K-562 leukemia and with SNB-19 CNS was over 100 µM in each case. Further, the TGI in the assay with UO-31 renal, in the assay with CCRF-CEM leukemia and with ACHN renal was over 100 µM throughout.
`Clc1cc(-c2csc(Cl)c2)cs1`: the TGI in the assay with HCT-116 colon, with COLO 205 colon, in the assay on HL-60(TB) leukemia, with IGROV1 ovarian, in the assay with 786-0 renal and in the assay on SNB-19 CNS was over 100 µM each time. Further, the TGI in the assay on UO-31 renal, with CCRF-CEM leukemia and in the assay on ACHN renal was over 100 µM each time.
Turning to `NC(=S)c1cn(C2OC(CO)C(O)C2O)c2ncnc(N)c12` (stereo unspecified), the GI50 with HCT-116 colon is 0.0876 µM; in the assay with HL-60(TB) leukemia, 0.18 µM; in the assay with IGROV1 ovarian it was 0.136 µM; with 786-0 renal, 0.356 µM; in the assay on K-562 leukemia, 0.199 µM; with SNB-19 CNS, 0.411 µM. For the same compound, the GI50 in the assay with UO-31 renal was 0.275 µM; in the assay with CCRF-CEM leukemia, 0.153 µM; with ACHN renal it was 0.229 µM. The TGI in the assay on HCT-116 colon was over 33.9 µM; in the assay with HL-60(TB) leukemia, 26.7 µM; in the assay on IGROV1 ovarian, 0.586 µM; with SNB-19 CNS it was 13.7 µM; with UO-31 renal, 1.68 µM; with CCRF-CEM leukemia, 0.507 µM.
As for `COc1cc2cc(C(=O)N3C[C@H](CCl)c4c3cc(O)c3ccccc43)[nH]c2c(OC)c1OC`, the GI50 in the assay with HCT-116 colon was 0.0165 µM; with COLO 205 colon, 0.118 µM; with 786-0 renal it was 0.0174 µM; in the assay on K-562 leukemia, 0.046 µM; in the assay on SNB-19 CNS, 0.0391 µM; in the assay with CCRF-CEM leukemia, under 0.01 µM. In addition, the TGI in the assay on HCT-116 colon is 59 µM; with COLO 205 colon, 1.8 µM and 0.483 µM; in the assay on HL-60(TB) leukemia it was 0.0105 µM; in the assay with 786-0 renal, 0.493 µM and 0.0519 µM; with SNB-19 CNS, 1.42 µM and 1.67 µM; in the assay with UO-31 renal, 0.543 µM. In addition, the results for the TGI with CCRF-CEM leukemia and with ACHN renal were 0.048 µM and 0.581 µM, respectively.
